Assay results: the NIST ThermoML archive (doi:10.1016/j.jct.2018.04.019)

Conditions: Liquid, Vibrating tube method

Cc1ccccc1 [toluene]
Conditions | mass density [kg/m3]
283.16 K, 1020 kPa | 876.55
283.16 K, 5010 kPa | 879.36
283.16 K, 10030 kPa | 882.78
283.16 K, 15050 kPa | 886.11
283.16 K, 20080 kPa | 889.23
283.16 K, 25060 kPa | 892.35
283.16 K, 30040 kPa | 895.27
283.16 K, 35080 kPa | 898.24
283.16 K, 40060 kPa | 901.05
283.16 K, 45050 kPa | 903.77
283.16 K, 50010 kPa | 906.43
283.16 K, 55060 kPa | 909.09
283.16 K, 60030 kPa | 911.65
283.16 K, 65050 kPa | 914.15
298.15 K, 1040 kPa | 862.88
298.15 K, 5040 kPa | 865.93
298.15 K, 10030 kPa | 869.6
298.15 K, 15050 kPa | 873.21
298.15 K, 20040 kPa | 876.63
298.15 K, 25050 kPa | 879.93
298.15 K, 30060 kPa | 883.14
298.15 K, 35020 kPa | 886.25
298.15 K, 40040 kPa | 889.26
298.15 K, 45070 kPa | 892.2
298.15 K, 50040 kPa | 895.06
298.15 K, 55040 kPa | 897.86
298.15 K, 60030 kPa | 900.56
298.15 K, 65020 kPa | 903.2
323.15 K, 1050 kPa | 839.46
323.15 K, 5050 kPa | 843.04
323.15 K, 10030 kPa | 847.29
323.15 K, 15010 kPa | 851.38
323.15 K, 20010 kPa | 855.27
323.15 K, 25060 kPa | 859.05
323.15 K, 30080 kPa | 862.69
323.15 K, 35020 kPa | 866.13
323.15 K, 40010 kPa | 869.52
323.15 K, 45060 kPa | 872.84
323.15 K, 50010 kPa | 875.93
323.15 K, 55010 kPa | 879.01
323.15 K, 60050 kPa | 882.04
323.15 K, 65030 kPa | 884.91
348.15 K, 1060 kPa | 815.55
348.15 K, 5070 kPa | 819.75
348.15 K, 10010 kPa | 824.67
348.15 K, 15030 kPa | 829.43
348.15 K, 20030 kPa | 833.88
348.15 K, 25020 kPa | 838.2
348.15 K, 30080 kPa | 842.3
348.15 K, 35050 kPa | 846.21
348.15 K, 40050 kPa | 849.97
348.15 K, 45070 kPa | 853.63
348.15 K, 50020 kPa | 857.09
348.15 K, 55060 kPa | 860.49
348.15 K, 60040 kPa | 863.8
348.15 K, 65070 kPa | 867
373.15 K, 1050 kPa | 790.86
373.15 K, 5020 kPa | 795.87
373.15 K, 10040 kPa | 801.74
373.15 K, 15040 kPa | 807.26
373.15 K, 20030 kPa | 812.38
373.15 K, 25080 kPa | 817.35
373.15 K, 30070 kPa | 821.93
373.15 K, 35040 kPa | 826.36
373.15 K, 40040 kPa | 830.59
373.15 K, 45030 kPa | 834.57
373.15 K, 50040 kPa | 838.5
373.15 K, 55040 kPa | 842.23
373.15 K, 60010 kPa | 845.81
398.15 K, 1070 kPa | 765.25
398.15 K, 5030 kPa | 771.26
398.15 K, 10040 kPa | 778.22
398.15 K, 15080 kPa | 784.74
398.15 K, 20010 kPa | 790.62
398.15 K, 25050 kPa | 796.25
398.15 K, 30040 kPa | 801.49
398.15 K, 35040 kPa | 806.48
398.15 K, 40020 kPa | 811.17
398.15 K, 45040 kPa | 815.71
398.15 K, 50020 kPa | 819.96
398.15 K, 55040 kPa | 824.15
398.15 K, 60020 kPa | 828.11
398.15 K, 65080 kPa | 831.99
423.15 K, 1050 kPa | 738.06
423.15 K, 5030 kPa | 745.45
423.15 K, 10060 kPa | 753.93
423.15 K, 15030 kPa | 761.54
423.15 K, 20000 kPa | 768.41
423.15 K, 25020 kPa | 774.89
423.15 K, 30020 kPa | 780.87
423.15 K, 35060 kPa | 786.56
423.15 K, 40020 kPa | 791.82
423.15 K, 45040 kPa | 796.87
423.15 K, 50040 kPa | 801.63
423.15 K, 55060 kPa | 806.24
423.15 K, 60040 kPa | 810.55
423.15 K, 65050 kPa | 814.77
448.15 K, 1040 kPa | 708.96
448.15 K, 5070 kPa | 718.48
448.15 K, 10040 kPa | 728.71
448.15 K, 15070 kPa | 737.86
448.15 K, 20050 kPa | 745.94
448.15 K, 25050 kPa | 753.39
448.15 K, 30040 kPa | 760.21
448.15 K, 35040 kPa | 766.59
448.15 K, 40020 kPa | 772.48
448.15 K, 45030 kPa | 778.13
448.15 K, 50030 kPa | 783.39
448.15 K, 55060 kPa | 788.44
448.15 K, 60010 kPa | 793.17
448.15 K, 65060 kPa | 797.83
473.15 K, 1030 kPa | 676.8
473.15 K, 5050 kPa | 689.34
473.15 K, 10050 kPa | 702.19
473.15 K, 15060 kPa | 713.2
473.15 K, 20020 kPa | 722.73
473.15 K, 25040 kPa | 731.39
473.15 K, 30010 kPa | 739.18
473.15 K, 35040 kPa | 746.42
473.15 K, 40050 kPa | 753.09
473.15 K, 45060 kPa | 759.38
473.15 K, 50050 kPa | 765.18
473.15 K, 55020 kPa | 770.69
473.15 K, 60030 kPa | 775.95
473.15 K, 65020 kPa | 780.92
